Data published in patent publication US20220331237A1, “DEVICE, METHODS AND USES FOR TREATING ANAPHYLAXIS” (1232176 B.C. Ltd., priority 2021, published 2022).
Where two headings read alike, the source gives them in different places.

How the values were obtained:
[1] = tested on: grade 2 or higher acute allergic reaction
Description: Institutional Review Board approval was obtained for the study and informed consent was obtained from study participants.

[2] = Commercial actuator, previously reported, cited from earlier work
[3] = Procedure: Briefly, a Next Generation Impactor (Model 170 NGI; Copley) was used to capture dose exiting a regular non-sectioned AIT (used here to minimize assay steps) at an inhalation flowrate of 30 L/min. Interior surfaces of the AIT and the impaction plates within the NGI were coated with silicone grease (Molykote 316; Dow Corning) prior to testing. […] Following actuation, the AIT was washed twice with 10 mL of 0.1 N HCl, while each plate of the NGI was washed once with 5 mL of 0.1 N HCl. Samples were assayed via UV spectroscopy at the absorbance maximum of 279 nm, as discussed above.
Tests were performed using the 0.22 mm actuator orifice with Primatene Mist HFA. Both transverse and coaxial insertion angles were used, with three repeated measures taken at each orientation. Particle size distributions were characterized via calculation of the mass median aerodynamic diameter (MMAD) and geometric standard deviation (GSD) via linear interpolation (e.g., Hinds W C. 2nd ed. Hoboken, N.J.: Wiley; 1999). A validated regional lung deposition model (e.g., Javaheri et al., J Aerosol Sci. 2013, 64:81-93 and Finlay et al., Lung Delivery of Aerosolized Dextran. 2000, 161:91-7) was used to estimate tracheobronchial and alveolar deposition from the measured particle size distributions under a simulated breath with an inhaled volume of 3.0 L, inhalation flowrate of 30 L/min, a pause between inhalation of (i) 0 or (ii) 10 seconds, and exhalation flowrate of 30 L/min.

[4] = 0.22 mm actuator orifice, unaffected by insertion angle
[5] = 0.22 mm actuator, Coaxial, 30 L/min
[6] = 0.22 mm actuator, Transverse, 30 L/min

## CNCC(O)c1ccc(O)c(O)c1 (stereo not drawn) [epinephrine, 4-(1-hydroxy-2-(methylamino)ethyl)benzene-1,2-diol]
[1]; Patient 1, 4 puffs given
  Tachycardia: Yes
  Time to Resolution of Allergic Reaction After Treatment Initiated: 3 min
  Tremors: Yes
[1]; Patient 2, 4 puffs given
  Tachycardia: Yes
  Time to Resolution of Allergic Reaction After Treatment Initiated: within 2 mins
  Tremors: Yes
[1]; Patient 3, 4 puffs given
  Tachycardia: Yes
  Time to Resolution of Allergic Reaction After Treatment Initiated: 0.5 min
  Tremors: Yes
[1]; Patient 4, 2 puffs given
  Tachycardia: Yes
  Time to Resolution of Allergic Reaction After Treatment Initiated: 1 min
  Tremors: Yes
[1]; Patient 5, 6 puffs given
  Tachycardia: Yes
  Time to Resolution of Allergic Reaction After Treatment Initiated: 6 min
  Tremors: Yes
[1]; Patient 6, 9 puffs given
  Tachycardia: Yes
  Tremors: Yes
[1]; Patient 6, 9 puffs given, entry runs on: resolved after 5 puffs, but recurred after 5 mins
  Time to Resolution of Allergic Reaction After Treatment Initiated: resolved after 5
[1]; Patient 6, 9 puffs given, resolved after 5 puffs
  Time to recurrence of allergic reaction after resolution: after 5 mins
[1]; Patient 7, 2 puffs given
  Tachycardia: Yes
  Time to Resolution of Allergic Reaction After Treatment Initiated: 2 min
  Tremors: Yes
[1]; Patient 8, 2 puffs given
  Tachycardia: Yes
  Time to Resolution of Allergic Reaction After Treatment Initiated: 1 min
  Tremors: Yes
[1]; Patient 9, 2 puffs given
  Tachycardia: Yes
  Time to Resolution of Allergic Reaction After Treatment Initiated: 1 min
  Tremors: Yes
[1]; Patient 10, 5 puffs given
  Tachycardia: Yes
  Time to Resolution of Allergic Reaction After Treatment Initiated: 1 min
  Tremors: Yes
[1]; Patient 11, 2 puffs given
  Tachycardia: Yes
  Tremors: Yes
[1]; Patient 12, 2 puffs given
  Tachycardia: Yes
  Time to Resolution of Allergic Reaction After Treatment Initiated: 1 min
  Tremors: Yes
[1]; Patient 13, 2 puffs given
  Tachycardia: Yes
  Time to Resolution of Allergic Reaction After Treatment Initiated: 1 min
  Tremors: Yes
[1]; Patient 14, 2 puffs given
  Tachycardia: Yes
  Time to Resolution of Allergic Reaction After Treatment Initiated: 1 min
  Tremors: Yes
[1]; Patient 15, 6 puffs given
  Tachycardia: Yes
  Time to Resolution of Allergic Reaction After Treatment Initiated: 4 min
  Tremors: Yes
[1]; Patient 16, 4 puffs given
  Tachycardia: Yes
  Time to Resolution of Allergic Reaction After Treatment Initiated: 1.5 min
  Tremors: Yes
[1]; Patient 17, 3 puffs given
  Tachycardia: Yes
  Time to Resolution of Allergic Reaction After Treatment Initiated: 1.5 min
  Tremors: Yes
[1]; Patient 18, 2 puffs given
  Tachycardia: Yes
  Time to Resolution of Allergic Reaction After Treatment Initiated: within 30 secs
  Tremors: Yes
[1]; Patient 19, 4 + 2 puffs given
  Tachycardia: Yes
  Time to recurrence of allergic reaction after resolution: after 10 mins, then
  Tremors: Yes
[1]; Patient 19, 4 + 2 puffs given, after recurrence
  Time to resolution of the recurred allergic reaction: resolved in 1 min
[1]; Patient 19, 4 + 2 puffs given, initial resolution
  Time to Resolution of Allergic Reaction After Treatment Initiated: 1 minute, recurred
[1]; all study participants
  Need for treatment with intramuscular epinephrine: No study participants required treatment with intramuscular epinephrine
[1]; all study participants, Primatene Mist HFA via Bespak BK633 actuator (0.22 mm)
  Resolution of clinical symptoms (laryngopharyngeal and systemic): prompt resolution of clinical symptoms
[1]; all study participants, further doses of oral inhaled epinephrine given
  Recurrence of symptoms after initial resolution: In two instances symptoms recurred after initial resolution and again resolved promptly
[2]; Coaxial
  Deposition, NGI Stage 1: 2.1 µg
  Deposition, NGI Stage 2: 2.5 µg
  Deposition, NGI Stage 3: 11.1 µg
  Deposition, NGI Stage 4: 72.9 µg
  Deposition, NGI Stage 5: 99.1 µg
  Deposition, NGI Stage 6: 34.1 µg
  Deposition, NGI Stage 7: 6.3 µg
  Deposition, NGI Stage 8: 0.0 µg
  Deposition, Throat: 136.3 µg
  Deposition, Total Recovered: 364.3 µg
[2]; Transverse
  Deposition, NGI Stage 1: 0.8 µg
  Deposition, NGI Stage 2: 1.1 µg
  Deposition, NGI Stage 3: 6.8 µg
  Deposition, NGI Stage 4: 56.0 µg
  Deposition, NGI Stage 5: 96.8 µg
  Deposition, NGI Stage 6: 37.7 µg
  Deposition, NGI Stage 7: 6.6 µg
  Deposition, NGI Stage 8: 0.0 µg
  Deposition, Throat: 212.9 µg
  Deposition, Total Recovered: 418.8 µg
[3]; [4]
  GSD: ~1.63
  MMAD: approximately 2 μm
[3]; [5]
  Deposition, NGI Stage 1: 1.9 µg
  Deposition, NGI Stage 2: 1.9 µg
  Deposition, NGI Stage 3: 8.5 µg
  Deposition, NGI Stage 4: 82.6 µg
  Deposition, NGI Stage 5: 122.2 µg
  Deposition, NGI Stage 6: 42.0 µg
  Deposition, NGI Stage 7: 7.6 µg
  Deposition, NGI Stage 8: 0.0 µg
  Deposition, Throat: 78.6 µg
  Deposition, Total Recovered: 345.2 µg
  MMAD (mass median aerodynamic diameter): 2.00 μm
[3]; [6]
  Deposition, NGI Stage 1: 1.5 µg
  Deposition, NGI Stage 2: 1.4 µg
  Deposition, NGI Stage 3: 8.8 µg
  Deposition, NGI Stage 4: 80.8 µg
  Deposition, NGI Stage 5: 121.7 µg
  Deposition, NGI Stage 6: 43.6 µg
  Deposition, NGI Stage 7: 9.5 µg
  Deposition, NGI Stage 8: 0.0 µg
  Deposition, Throat: 95.8 µg
  Deposition, Total Recovered: 363.0 µg
  MMAD (mass median aerodynamic diameter): 1.98 μm
[3]; Commercial actuator, Coaxial, calculated here from previously reported deposition
  MMAD (mass median aerodynamic diameter): 2.05 μm
[3]; Commercial actuator, Transverse, calculated here from previously reported deposition
  MMAD (mass median aerodynamic diameter): 1.93 μm
